From patent US5599813A, “Thiazolopyrimidine derivatives” (Daiichi Pharmaceutical Co., Ltd., priority 1993, dated 1997) come the findings set out here.

The assay deals with Chorioallantoic membrance (CAM). Nature of the assay: CAM angiogenesis Inhibition Test. Particulars: CAM of fertilized chicken egg, two days after; for Inhibition activity (%): 10 μl/egg in physiological saline or DMSO, 37.6° C., control vascularization settled as 100; for Judgement: class of inhibition activity, significance by Student's t-test, 2880 min. Format: in vivo, chicken (4 to 5 day old fertilized egg). The protocol:
Test was carried out by […]-Folkman's method (Nature, 297, 307 (1982)), but partially modified as described in Exp. Path. 30, 143 (1986). Chorioallantoic membrance (CAM) of 4 to 5 day old fertilized chicken egg (Babucock) was exposed. […] Vascularization (angiogenesis) of the control group was settled as 100 and the degree to the test sample was calcurated and expressed as inhibition activity. The significance of activity was determined by Student's t-test and the case over 50 % was indicated to + and the case below 50 % to i as shown in the following table.

Structures can show the parent of a compound that is named as a salt.

For the compound `CCCCCCCCc1ccc(NC(=O)C2=C(CCC#N)N3CCCN=C3S2)cc1.Cl` [Example 82, N-(4-Octylphenyl)-3-(2-cyanoethyl)-6,7-dihydro-5H-thiazolo-[3,2-a]pyrimidine-2-carboxamide hydrochloride], the “Inhibition activity (%)” value was determined as 88.4% and the Judgement result was “+ (over 50 %)”.
For `O=C(O)COC1=C(C(=O)Nc2cc(Cl)cc(Cl)c2)SC2=NCCCN21` [Example 114, N-(3,5-Dichlorophenyl)-3-carboxymethyloxy-6,7-dihydro-5H-thiazolo[3,2-a]pyrimidine-2-carboxamide], the “Inhibition activity (%)” value is on record as 94.3% and the Judgement result was “+ (over 50 %)”.
On to `Cl.O=C(Nc1cc(Cl)cc(Cl)c1)C1=C(C2CCCC2)N2CCCN=C2S1` [Example 9, N-(3,5-Dichlorophenyl)-3-cyclopentyl-6,7-dihydro-5H-thiazolo[3,2-a]pyrimidine-2-carboxamide hydrochloride], for which the “Inhibition activity (%)” value worked out at 37.2%.
As to `CCCCCCCCc1ccc(NC(=O)C2=C(C3CCC3)N3CCCN=C3S2)cc1.Cl` [Example 8, N-(4-Octylphenyl)-3-cyclobutyl-6,7-dihydro-5H-thiazolo[3,2-a]pyrimidine-2-carboxamide hydrochloride], the “Inhibition activity (%)” value is 82.7% and the Judgement entry is given as “+ (over 50 %)”.
With `Cl.O=C(Nc1cc(Cl)cc(Cl)c1)C1=C(C2CCC2)N2CCCN=C2S1` [Example 2, N-(3,5-Dichlorophenyl)-3-cyclobutyl-6,7-dihydro-5H-thiazolo[3,2-a]pyrimidine-2-carboxamide hydrochloride], the “Inhibition activity (%)” value was 82.5% and the Judgement result is given as “+ (over 50 %)”.
In the case of `CCCC1=C(C(=O)Nc2ccc(SCCCCCC(=O)O)cc2)SC2=NCCCN21.Cl` [Example 90, N-[4-(5-Carboxypentylthio)phenyl]-3-propyl-6,7-dihydro-5H-thiazolo[3,2-a]pyrimidine-2-carboxamide hydrochloride], the “Inhibition activity (%)” value was 93.2% and the Judgement result is “+ (over 50 %)”.
Regarding `CCCCCCCCc1ccc(NC(=O)C2=C(CCC)N3CCCN=C3S2)cc1.Cl` [Example 19, N-(4-n-Octylphenyl)-3-propyl-6,7-dihydro-5H-thiazolo[3,2-a]-pyrimidine-2-carboxamide hydrochloride], the “Inhibition activity (%)” value came to 69.3% and the Judgement result is on record as “+ (over 50 %)”.
With `CCCC1=C(C(=O)Nc2cc(Cl)cc(Cl)c2)SC2=NCCCN21` [Example 13, N-(3,5-dichlorophenyl)-3-propyl-6,7-dihydro-5H-thiazolo[3,2a-]pyrimidine-2-carboxamide hydrochloride], the “Inhibition activity (%)” value is reported as 76.5% and the Judgement result is reported as “+ (over 50 %)”.
On to `CCCC1=C(C(=O)Nc2ccc(C(C)(C)C)cc2)SC2=NCCCN21.Cl` [Example 16, N-(4-tert-Butylphenyl)-3-propyl-6,7-dihydro-5H-thiazolo[3,2-a]pyrimidine-2-carboxamide hydrochloride], for which the “Inhibition activity (%)” value is 57.1% and the Judgement entry is recorded as “+ (over 50 %)”.
`CCCCC1=C(C(=O)Nc2cc(F)cc(F)c2)SC2=NCCCN21.Cl` [Example 39, N-(3,5-Difluorophenyl)-3-butyl-6,7-dihydro-5H-thiazolo[3,2-a]pyrimidine-2-carboxamide hydrochloride]: the “Inhibition activity (%)” value is reported as 32.3%.
